Values belong to the compound of their own block, whether it stands above or below them.
Legend:
[1] = Fluorescence quantum yield against Rhodamine 6G; type: physicochemical; settings: in ethanol, Rhodamine 6G as reference
Procedure: The quantum yield of compounds (1) through (11) was measured in ethanol using Rhodamine 6G as a reference.
The fluorescence quantum yields of the compounds were determined using the formula (ϕ=ϕs(Fx/Fs) (As/Ax), where ϕ is quantum yield, F is the integrated area under the corrected emission spectrum, and A is the absorbance at the excitation wavelength; the subscripts x and s refer to F16s and the standard, respectively. Rhodamine 6G (OF 95%) in ethanol was used as the standard. All compounds and Rhodamine 6G were dissolved in ethanol in 5 different concentrations with the absorbance lower than 0.1 at 425 nm. The corresponding 5 different fluorescences of the compounds and Rhodamine 6G were excited at 425 nm and the emission spectra from 450 nm to 650 nm were obtained for the following integrated area measurement. All data was analyzed using Origin Pro 9.0 software (OriginLab, Northampton, Massachusetts, USA) to get the compounds' final quantum yield.

[2] = tested on: bladder cancer T24 cells, non-small cell lung cancer (NSCLC) H838 cells, normal HIN-3T3 cells; test: In vitro cytotoxicity, anti-tumor activity and selectivity against normal cells; type: cell-based; settings: Homo sapiens, NCI-H838, 72 h, 3 days
Procedure: (§1) The cytotoxicity of compounds (1) through (11) was tested in vitro with bladder cancer T24 cells, non-small cell lung cancer (NSCLC) H838 cells, and normal HIN-3T3 cells (FIG. 4). All test cell lines were incubated in 96-well plates overnight at a density of 3000 cells/well. The culture medium was replaced with 200 μL of culture medium, into which the testing compound was dispersed at various concentrations (1.95-500 μM). After incubating for 3 days, the viable cell numbers were checked and directly counted under microscopy (10×). A minimum of 1 mm×1 mm area was counted from each of at least three widely separated regions of cell culture. The cell proliferation rate was calculated by the following formula: cell proliferation rate (%)=(average cell number of sample wells/average cell number of control wells)×100%. The intact culture medium was evaluated as a control.

[3] = Photostability under continuous excitation; type: physicochemical; settings: 10 μM in water, continuously excited for 50 mins
Procedure: A 75 W Xenon arc lamp (Hamamatsu, San Jose, California, USA) with 420-470 nm bond pass filter (MF445-45, Thorlabs, Newton, New Jersey, USA) was used as the light source for the F16 derivatives, Rhodamine 6G, and Mitotracker® Green. Analogously, a 540-580 nm bond pass filter (MF559-34, Thorlabs, Newton, New Jersey, USA) was used to excite Mitotracker Red. All the dyes were dissolved in water at a 10 μM concentration in 700 μL micro quartz cuvettes (10 mm, Sigma-Aldrich, St. Louis, MO, USA). They were continuously excited for 50 mins. During this period, the fluorescence intensity was measured every 5 mins at 525 nm (F16s, Rhodamine 6G, Mitotracker Green) or 600 nm (Mitotracker Red). Relative fluorescence intensity change was monitored over time.

[4] = UV absorbance of the compounds; type: physicochemical; settings: 31 μM in water
Procedure: The absorbance and fluorescence of delocalized lipophilic cation compounds (1) through (11) were measured. UV absorbance of the compounds was recorded on an Agilent 8453 UV spectrophotometer at a concentration of 31 μM in water. Fluorescence was recorded on a Fluoromax-3 spectrafluorometer (Jobin Yvon) at a concentration of 7.8 μM in water.

H2228 cell line = test: In vitro cytotoxicity, H2228; type: cell-based
mitochondria = test: Mitochondrial targeting, fluorescence microscopy of stained cells; type: cell-based; settings: NIH-353, H838, and T24 cell lines
Procedure: The mitochondrial targeting properties of compounds (1) through (11) were tested. 3 μM compounds were added to cells grown in a MatTek glass-bottom culture dishes (Ashland, Massachusetts) for 1 h and washed with PBS (phosphate-buffered saline) three times. After replacement of the medium, cells were imaged using a fluorescent microscope (Zeiss) with a 63× oil or 20× objective lens (excited in the GFP channel).
Mitotracker@ Red (Molecular Probes) and Hoechst (Thermo Scientific) were added to the medium to stain the mitochondria and nuclei, following the manufacturer's procedures. Cells were photographed using a 63× oil or 20× objective lens.

[5] = tested on: human lung adenocarcinoma HCC827 xenograft; test: Tumor growth and body weight in the HCC827 xenograft; type: in vivo, nude mice
Procedure: (§2) In vivo studies on the effect of compound (3) on the tumor growth and body mass of a mouse model were conducted. Female athymic nude mice (nu/nu) from 4-6 weeks old were obtained from Charles River Laboratories (Boston, MA, USA) and kept under sterile conditions. 5×10^6 human lung adenocarcinoma HCC827 cells suspended in 150 μL of PBS were inoculated subcutaneously in the right shoulder of the nude mice. When the tumors reached 3˜5 mm in diameter, the tumor bearing mice were administered i.v. with compound (3) (dissolved in 150 μL PBS, with 2 μL DMSO) at 15 mg/kg on days 1, 3, 5, 7, 9, 11, 13, 15, 17, 19, 21. Correspondingly, untreated tumor-bearing mice serving as controls were administered i.v. with 150 μL 1×PBS pH 7.4 (with 2 μL DMSO) on the same days as the treated mice. Ten mice were used for each group. Length and width of the elliptical tumors were measured by Vernier caliper after every intravenous injection. Modified ellipsoid formula ½ (Length×Width^2) was used to calculate the tumor size. The tumor growth was calculated with the ratio of final volume (FV) minus initial volume (IV) to initial volume (IV).

bladder cancer T24 cells = test: In vitro cytotoxicity, T24; type: cell-based; settings: Homo sapiens, T-24, 72 h, 3 days
Procedure: as §1

carcinoma cell = test: Flow cytometry of carcinoma cell growth; type: cell-based
[6] = tested on: non-small cell lung cancer (NSCLC) H838 cells; test: In vitro cytotoxicity, H838; type: cell-based; settings: Homo sapiens, NCI-H838, 72 h, 3 days
Procedure: as §1

[7] = tested on: NSCLC cell lines HCC827, H838, HCC4006, H1693, H2030, H2228, A549, H1437, H1944; test: Cytotoxicity in nine lung cancer cell lines; type: cell-based; settings: all nine NSCLC cell lines
H838 cells = test: Dependence of mitochondrial accumulation on mitochondrial membrane potential; type: cell-based
Procedure: To examine whether the mitochondrial membrane potential (ΔΨm) causes the accumulation of delocalized lipophilic cation compounds in mitochondria, H838 cells were preincubated with medium containing high concentrations of K^+ ions (i.e. 137 mM), to depolarize the mitochondrial membrane, or low concentrations of K^+ ions (i.e. 3 mM). Next, 3 μM of compound (3) was added and the cells were incubated for 30 minutes.

[8] = tested on: subcutaneous HCC827 tumor; test: In vivo fluorescent imaging of mice bearing HCC827 tumors; set-up: species or system nude mice; settings: 15 mg/kg intravenous
Procedure: as §2, with “(IV). In vivo fluorescent imaging was taken 40 minutes and 2 hours after the injection of compound (3) 15 mg/kg. IVIS spectrum instrument was used. Excitation wavelength was set at 450 nm. Collection wavelength was set at 550 nm, using a 3s acquisition time. […]” for “(IV).”

SMILES: C[n+]1ccc(/C=C/c2c[nH]c3c2ccc2ccccc23)cc1 [(2)]
quantum yield [1]: around 12%
IC50 [2]: 360 to 6200 nM

SMILES: C[n+]1ccc(/C=C/c2c[nH]c3ccc(Br)cc23)cc1 [(5)]
absorption peak / absorption maxima [4]: about 450 nm
IC50 [2]: 360 to 6200 nM

SMILES: Cn1cc(/C=C/c2cc[n+](C)cc2)c2cc(F)ccc21 [(1)]
quantum yield [1]: around 12%
photostability [3]: bleached relatively easily

SMILES: C[n+]1ccc(/C=C/c2c[nH]c3ccc(F)cc23)cc1 [(7)]
quantum yield [1]: around 20%

More lines, main results first:

quantum yield [1]: 49.1%
SMILES: C[n+]1ccc(/C=C/c2c[nH]c3ccc(C#N)cc23)cc1 [Compound (4)]
IC50 [2]: 360 to 6200 nM

photostability [3]: bleached relatively easily
SMILES: C[n+]1ccc(/C=C/c2c(Cl)[nH]c3ccccc23)cc1 [(8)]

absorption peak / absorption maxima [4]: about 450 nm
quantum yield [1]: around 20%
photostability [3]: bleached relatively easily
SMILES: Cc1ccc2[nH]c(C)c(/C=C/c3cc[n+](C)cc3)c2c1 [(9)]

quantum yield [1]: around 20%
tumor to background ratio ([8]; 2 h post injection): ~2
SMILES: Cc1cc(Br)cc2c(/C=C/c3cc[n+](C)cc3)c[nH]c12 [Compound (3)]
anti-cancer cell to anti-normal cell ratio (H2228 cell line; H2228 against 3T3): around 225
IC50 (H2228 cell line; Homo sapiens, NCI-H2228, H2228 cell line): 48.9 nM
colocalization with MitoTrack (mitochondria): colocalization
tumor volume compared to PBS treated group ([5]; 15 mg/kg i.v. on days 1 to 21 every other day, 21 days PI, p=0.0426): decreased dramatically
bodyweight between control and treated group ([5]; 15 mg/kg i.v., p=0.477): no significant difference
tumor pathologic section H&E staining ([5]; HCC827 tumor of treated mice): caused tumor inflammatory cell infiltration, fibrous tissue proliferation, and cell apoptosis
IC50 (bladder cancer T24 cells): 820 nM
carcinoma cell growth by flow cytometry (carcinoma cell): inhibited carcinoma cell growth in a time-dependent manner
IC50 [6]: 360 nM
ATCA (antitumor activity) in NSCLC cell lines [7]: impressively high ATCA
accumulation in the mitochondria, low K+ (H838 cells; 3 μM, 30 minutes, preincubation with 3 mM K+): more accumulation
accumulation in the mitochondria, high K+ (H838 cells; 3 μM, 30 minutes, preincubation with 137 mM K+): less accumulation
mitochondrial staining after addition of FCCP (H838 cells; FCCP added to the cells): immediately decayed and diffused into the cytoplasm
organ accumulation ([8]; compared with liver, spleen, heart, lung, and brain): Tumor, kidney, bone, stomach, bowel, pancreas and skin accumulated more
IC50 [2]: 360 to 6200 nM
